# According to US12655096B2, “Crystalline polymorphs of Rigosertib sodium” (ASSIA CHEMICAL INDUSTRIES LTD., priority 2018, dated 2026):
# Assays:
# [1] = as described in U.S. Pat. No. 8,476,320; cited from earlier work
# [2] = Hygroscopicity (water absorption on exposure to relative humidity); format: physicochemical
# From the text: As used herein the term non-hygroscopic in relation to crystalline Rigosertib Sodium refers to less than 1.0% (w/w) absorption of water, by the crystalline Rigosertib Sodium as determined, for example, by TGA when exposed to 60% RH for 7 days at RT, or preferably 80% RH for 7 days at RT.
# [3] = Solid state stability on storage; format: physicochemical
smiles,measurement,setting,value
"COc1cc(OC)c(/C=C/S(=O)(=O)Cc2ccc(OC)c(NCC(=O)O)c2)c(OC)c1 [Amorphous Rigosertib Sodium, Rigosertib Sodium]",hygroscopicity (water absorption),[1],readily absorbs water after complete drying
"COc1cc(OC)c(/C=C/S(=O)(=O)Cc2ccc(OC)c(NCC(=O)O)c2)c(OC)c1 [Rigosertib Sodium Form A, Rigosertib Sodium]",hygroscopicity,[2]; non-hygroscopic defined as less than 1.0% (w/w) absorption of water,non-hygroscopic
same,hygroscopicity at relative humidity,"[2]; up to about 80% relative humidity, about 7 days, 25° C.",substantially non-hygroscopic
same,stability of the solid state form,[3],stable
"COc1cc(OC)c(/C=C/S(=O)(=O)Cc2ccc(OC)c(NCC(=O)O)c2)c(OC)c1 [Rigosertib Sodium Form E, Rigosertib Sodium]",time for which the form is stable,[3]; at RT,at least 4 M
